Assay results published in PMC6631792, “In Vitro and In Vivo Anti-Breast Cancer Activities of Some Newly Synthesized 5-(thiophen-2-yl)thieno-[2,3-d]pyrimidin-4-one Candidates” (Molecules, 2019).

How the values were obtained:
[1] = Average animal weight in MCF-7 mouse xenograft model; format: in vivo; settings: nude mice with MCF-7 xenograft, i.p.; for Average Weight of Animals in Grams after Days 0: day 0; for Average Weight of Animals in Grams after Days 2: day 2; for Average Weight of Animals in Grams after Days 4: day 4; for Average Weight of Animals in Grams after Days 6: day 6; for Average Weight of Animals in Grams after Days 8: day 8; for Average Weight of Animals in Grams after Days 10: day 10; for Average Weight of Animals in Grams after Days 12: day 12; for Average Weight of Animals in Grams after Days 14: day 14; for Average Weight of Animals in Grams after Days 16: day 16; for Average Weight of Animals in Grams after Days 18: day 18; for Average Weight of Animals in Grams after Days 20: day 20; for Average Weight of Animals in Grams after Days 22: day 22
From the text: “In this work, MCF-7 mouse xenograft model was used. The animal protocol was approved by the Institutional Animal Use Ethics and Care Committee of the University of Alabama at Birmingham (50-01-05-08B). Female athymic pathogen-free nude mice (nu/nu, 4–6 weeks) were purchased from Frederick Cancer Research and Development Center (Frederick, MD, USA). To establish MCF-7 human breast cancer xenografts, each of the female nude mice was first implanted with a 60-day (subcutaneously, s.c.) slow release estrogen pellet (SE-121, 1.7 mg […]/pellet; Innovative Research of America, Sarasota, FL, USA). After 24 h, grown cells were harvested, washed twice with serum-free medium, resuspended, and injected subcutaneously (5 million cells/0.2 mL) into the left inguinal area of the mice. During the experiment, animals were checked periodically and the percentages of tumor growth, as well as animal weights, were recorded. Every 48 h, the size of the tumor was recorded by measuring two perpendicular diameters of the tumor and tumor volume was calculated according to Wang et al. [46]”.
“Treated animals and control groups (7–10 mice/group) received different compounds and vehicles, respectively. The tested compounds were dissolved in PEG400:ethanol:saline (57.1:14.3:28.6, v/v/v), and injected intraperitoneal (i.p.) at doses of […], 3 d/wk for 3 weeks. The higher dose (10 µM/kg/d, 3 d/wk) inhibited MCF-7 xenograft tumor growth”.

MCF-7 cells = test: MTT cytotoxic assay on MCF-7 cells; format: cell-based, Human; settings: Homo sapiens, MCF7
From the text: “Human breast cancer cells (MCF-7) and normal non-tumorigenic MCF-10A cells were used throughout the work. Cells were obtained from ATCC, Gaithersburg, MD, USA. Standard MTT assay was used to explore the possible cytotoxic effects of the synthesized compounds [41, 42]. Medium composition, cultivation conditions and assay performance were exactly the same as our previous work. […] After MTT addition, the absorbance of the dissolved formazan crystals was read at 570 nm. The IC50 values were obtained with linear regression equations using Origin® 6.1 software (Origin Lab Corporation, Northampton, MA, USA)”.

Row | SMILES | melting point | Average Weight of Animals in Grams after Days 0 [1] | Average Weight of Animals in Grams after Days 2 [1] | Average Weight of Animals in Grams after Days 4 [1] | Average Weight of Animals in Grams after Days 6 [1] | Average Weight of Animals in Grams after Days 8 [1] | Average Weight of Animals in Grams after Days 10 [1] | Average Weight of Animals in Grams after Days 12 [1] | Average Weight of Animals in Grams after Days 14 [1] | Average Weight of Animals in Grams after Days 16 [1] | Average Weight of Animals in Grams after Days 18 [1] | Average Weight of Animals in Grams after Days 20 [1] | Average Weight of Animals in Grams after Days 22 [1] | IC50 (MCF-7 cells)
1 | COc1cccc(C=NNC(=O)Cn2cnc3scc(-c4cccs4)c3c2=O)c1OC [Compound 6, N′-(2,3-Dimethoxybenzylidene)-2-(4-oxo-5-(thiophen-2-yl)thieno[2,3-d]pyrimidin-3(4H)-yl)-acetohydrazide] | 248 to 250 °C | 23.7 Grams | 23.7 Grams | 23.6 Grams | 23.6 Grams | 23.5 Grams | 23.5 Grams | 23.5 Grams | 23.4 Grams | 23.4 Grams | 23.5 Grams | 23.5 Grams | 23.5 Grams | 4.52 ± 0.085 µM
2 | O=C(Cn1cnc2scc(-c3cccs3)c2c1=O)NN=Cc1ccc(Cl)cc1 [Compound 7, N′-(4-Chlorobenzylidene)-2-(4-oxo-5-(thiophen-2-yl)thieno[2,3-d]pyrimidin-3(4H)-yl)acetohydrazide] | 250 to 252 °C | 27.3 Grams | 27.3 Grams | 27.2 Grams | 27.2 Grams | 27.2 Grams | 27.1 Grams | 27.1 Grams | 27.1 Grams | 27.0 Grams | 27.0 Grams | 27.0 Grams | 27.0 Grams | 4.33 ± 0.076 µM
3 | O=C(Cn1cnc2scc(-c3cccs3)c2c1=O)NN1C(=O)CSC1=Nc1ccccc1 [Compound 11, N-(4-oxo-2-(phenylimino)thiazolidin-3-yl)-2-(4-oxo-5-(thiophen-2-yl)thieno[2,3-d]-pyrimidin-3(4H)-yl)acetamide] |  | 26.6 Grams | 26.6 Grams | 26.6 Grams | 26.5 Grams | 26.6 Grams | 26.6 Grams | 26.4 Grams | 26.3 Grams | 26.3 Grams | 26.3 Grams | 26.3 Grams |  | 2.48 ± 0.054 µM
4 | CCOC(=O)Cn1cnc2scc(-c3cccs3)c2c1=O [Compound 3, ethyl 2-(4-oxo-5-(thiophen-2-yl)thieno[2,3-d]pyrimidin-3(4H)-yl)acetate] |  | 28 Grams | 28 Grams | 28 Grams | 28 Grams | 28.2 Grams | 27.9 Grams | 27.8 Grams | 27.7 Grams | 27.7 Grams | 27.6 Grams | 27.7 Grams | 27.7 Grams | 5.98 ± 0.099 µM
5 | O=C(Cn1cnc2scc(-c3cccs3)c2c1=O)NN1C(=O)CSC1c1ccc(Cl)cc1 (centres unmarked) [Compound 9, N-(2-(4-Chlorophenyl)-4-oxothiazolidin-3-yl)-2-(4-oxo-5-(thiophen-2-yl)thieno[2,3-d]-pyrimidin-3(4H)-yl)-acetamide] | 175 to 177 °C | 24.1 Grams | 24.1 Grams | 24.0 Grams | 24.0 Grams | 24.0 Grams | 24.0 Grams | 23.7 Grams | 23.7 Grams | 23.6 Grams | 23.6 Grams | 23.6 Grams | 23.6 Grams | 2.37 ± 0.053 µM
6 | NNC(=O)Cn1cnc2scc(-c3cccs3)c2c1=O [Compound 4, 2-(4-oxo-5-(thiophen-2-yl)thieno[2,3-d]pyrimidin-3(4H)-yl)acetohydrazide] | 205 to 207 °C | 24.2 Grams | 24.2 Grams | 24.1 Grams | 24.0 Grams | 23.9 Grams | 23.9 Grams | 23.7 Grams | 23.7 Grams | 23.6 Grams | 23.6 Grams | 23.6 Grams |  | 4.87 ± 0.098 µM
